Results reported in patent US8287921B1, “Formulations against cutaneous leishmaniasis” (priority 2011, dated 2012).
Values after ≈ are worked out from the molar mass of the structure shown.

What was measured:
[1] = system: 3T3 cell lines (Normal Fibroblast cell); assay: Cytotoxic activity against 3T3 cell lines (MTT assay); type: cell-based, Mouse; settings: 72 h, 1-100 μg/mL
Method: Cytotoxic activity of compounds was evaluated in 96-well flat-bottomed micro plates by using the standard MTT (3-[4,5-dimethylthiazole-2-yl]-2,5-diphenyl-tetrazolium bromide) colorimetric assay1. For this purpose, 3T3 (Mouse fibroblast) were cultured in Dulbecco's Modified Eagle's Medium, supplemented with 5% of foetal bovine serum (FBS), 100 IU/mL of penicillin and 100 μg/mL of streptomycin in 25 cm^3 flask, and kept in 5% CO2 incubator at 37° C. Exponentially growing cells were harvested, counted with haemocytometer and diluted with a particular medium. Cell culture with the concentration of 1×10^5 cells/mL was prepared and introduced (100 μL/well) into 96-well plates. After overnight incubation, medium was removed and 200 μL of fresh medium was added with different concentrations of compounds (1-100 μg/mL). After 72 h, 50 μL MTT (2 mg/mL) was added to each well and incubated further for 4 hrs. Subsequently, 100 μL of DMSO was added to each well. The extent of MTT reduction to formazan within cells was calculated by measuring the absorbance at 570 nm, using a microplate ELISA reader (Spectra Max plus, Molecular Devices, CA, USA). The cytotoxicity was recorded as concentration causing 50% growth inhibition for 3T3 cells.

Leishmania promastigotes = assay: In vitro leishmanicidal assay; type: cell-based; settings: 72 hrs, 22-25° C.
Method: Leishmania promastigotes were grown in bulk early in modified NNN biphasic medium using normal physiological saline. Leishmania parasite promastigotes were cultured with RPMI 1640 medium (Sigma, St. Louis, USA) supplemented with 10% heat inactivated foetal Calf serum (FCS) (PAA Laboratories GmbH, Austria) Parasites at log phase were centrifuged at 2000 rpm for 10 minutes, and washed three times with saline at same speed and time. Parasites were diluted with fresh culture medium to a final density of 1×10^6 cells/ml.
In a 96-well micro titer plate, medium was added in different wells, 20 μl of the experimental compound was added in medium and serially diluted. 100 μl of parasite culture was added in all wells. Two rows were left for negative and positive control. Negative controls receives medium while the positive control contains varying concentrations of standard antileishmanial compound e.g., Amphotericin B (MP Biomedical Inc.), Pantamidine (ICN Biomedical Inc.). The plate was incubated between 22-25° C. for 72 hrs. […] All assays were run in duplicate (5).

## C[C@@H]1C[C@@H]([C@H](O)CC2CC(=O)NC(=O)C2)C(=O)[C@@H](C)C1 [Cyclohexamide]
[1]
  IC50 ± S.D. 3T3 cell lines: 0.26 ± 0.04 µg/mL (≈ 0.924 µM)

## N=C(N)c1ccc(OCCCCCOc2ccc(C(=N)N)cc2)cc1 [Pentamidine]
Leishmania promastigotes; Leishmania, read-out: In vitro Leishmanicidal activity IC50 ± S.D
  IC50: 5.13 ± 0.02 µg/mL (≈ 15.1 µM)

## C[C@@H]1[C@H](O)[C@@H](C)/C=C/C=C/C=C/C=C/C=C/C=C/C=C/[C@H](O[C@@H]2O[C@H](C)[C@@H](O)[C@H](N)[C@@H]2O)C[C@@H]2O[C@](O)(C[C@@H](O)C[C@@H](O)[C@H](O)CC[C@@H](O)C[C@@H](O)CC(=O)O[C@H]1C)C[C@H](O)[C@H]2C(=O)O [Amphotericin B]
Leishmania promastigotes
  In vitro Leishmanicidal activity IC50 ± S.D: 0.12 ± 0.10 µg/mL
